Assays:
[1] = system: HCV RNA replicon in cell line ET (luc-ubi-neo/ET), human Huh7 hepatoma; test: Method A: HCV RNA replicon antiviral assay (luciferase, ET cell line); type: cell-based, Hepatitis C virus; conditions: Hepatitis C virus, Huh-7; Replicon, assay of Example 22; 72 hr; read-out: Inhibition, Replicon
Outline: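 ET replicon cells (Huh7 carrying luciferase-reporter HCV replicon) plated at 5×10^3 cells/well and exposed 72 hr to six 3-fold drug concentrations in DMEM/5% FBS. Replicon luciferase gave EC50/EC90; CytoTox-1 cell counts gave IC50 (viability); […]. Interferon alpha-2b served as positive control.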

[2] = target: T1, D168A mutant of the HCV NS3/4A 1b protease enzyme (Hepatitis C virus genotype 1b, UniProt P26663, D1194A); test: HCV Protease FRET Assay (IC50), D168A mutant; type: biochemical; conditions: read-out: Inhibition, HCV D168A; D168A enzyme, FRET assay
T1 construct: 10× stocks of NS3/4A protease enzyme from Bioenza (Mountain View, Calif.); purchased Bioenza (Mountain View, Calif.)
Protocol: (§1) HCV Protease FRET Assay for Wild Type and Mutated NS3/4A 1b Enzymes (IC50)
(§2) Protease reactions were started with the addition of 45 μL of the FRET substrate and monitored for 120 minutes at λex487/λem514 through Quad^4 monochromoters in a Synergy^4 plate reader from BioTek (Winooski, Vt.). At the conclusion of each assay, progress curves from each well were examined for linear reaction kinetics and fit statistics (R^2, absolute sum of squares).
(§3) The compound numbers correspond to the compound numbers in Table 3.

[3] = system: cell line ET (luc-ubi-neo/ET), human Huh7 hepatoma cell line; test: Method A: cytotoxicity in ET replicon cells (CytoTox-1); type: cell-based; conditions: concentration decreasing cell viability by 50%, 72 hr
Protocol: The compounds were assayed to evaluate the antiviral activity and cytotoxicity of compounds in vitro using HCV RNA replicons. This assay used the cell line ET (luc-ubi-neo/ET), which is a human Huh7 hepatoma cell line that contains an HCV RNA replicon with a stable luciferase (Luc) reporter and three cell culture-adaptive mutations. […]
The ET cell line was grown in Dulbecco's modified essential media (DMEM), 10% fetal bovine serum (FBS), 1% penicillin-streptomycin (pen-strep), 1% glutamine, 250 μg/ml G418 in a 5% CO2 incubator at 37° C. All cell culture reagents were obtained from Mediatech (Manassas, Va.). Cells were trypsinized (1% trypsin:EDTA) and plated out at 5×10^3 cells/well in white 96-well assay plates (Costar) dedicated to cell number (cytotoxicity) or antiviral activity assessments. Drugs were added at six 3-fold concentrations each and the assay was run in DMEM, 5% FBS, 1% pen-strep, 1% glutamine. Human interferon alpha-2b (PBL Biolabs, New Brunswick, N.J.) was included in each run as a positive control compound. Cells were processed 72 hr post drug addition when the cells are still subconfluent. Antiviral activity was measured by analyzing replicon-derived luciferase activity using the Steady-Glo Luciferase Assay System (Promega, Madison, Wis.) according to manufacturer's instruction. The number of cells in each well was determined by CytoTox-1 reagent (Promega). […].

[4] = target: T2, wild type HCV NS3/4A 1b protease enzyme (Hepatitis C virus genotype 1b, UniProt P26663); test: biochemical; type: biochemical; conditions: read-out: Inhibition, WT; WT enzyme, FRET assay
T2 construct: 10× stocks of NS3/4A protease enzyme from Bioenza (Mountain View, Calif.); purchased Bioenza (Mountain View, Calif.)
Protocol: as §1, §2, §3

[5] = target: T1, D168A mutant of the HCV NS3/4A 1b protease enzyme; test: HCV Protease FRET Assay (IC50_APP), D168A mutant; type: biochemical; conditions: apparent IC50, D168A mutant; read-out: IC50_APP, HCV D168A
[6] = target: T3, R155K mutant of the HCV NS3/4A 1b protease enzyme (Hepatitis C virus genotype 1b, UniProt P26663, R1181K); test: HCV Protease FRET Assay (IC50_APP), R155K mutant; type: biochemical; conditions: apparent IC50, R155K mutant; read-out: IC50_APP, HCV R155K
T3 construct: 10× stocks of NS3/4A protease enzyme from Bioenza (Mountain View, Calif.); purchased Bioenza (Mountain View, Calif.)
Protocol: HCV Protease FRET Assay for WT and Mutated NS3/4A 1b Enzymes (IC50—APP).
The following protocol was used to generate “apparent” IC50 (IC50—APP) values as depicted in Table 6, below. […] 5 μL of each enzyme were added to Corning (#3575) 384-well, black, microtiter plates (Corning, N.Y.) after spotting a 0.5 μL volume of 50% DMSO and serially diluted compounds prepared in 50% DMSO. Protease reactions were immediately started after enzyme addition with the addition of 45 μL of the FRET substrate and monitored for 60-90 minutes at λex485/λem520 in a Synergy^4 plate reader from BioTek (Winooski, Vt.). At the conclusion of each assay, progress curves from each well were examined for linear reaction kinetics and fit statistics (R^2, 95% confidence intervals, absolute sum of squares).
The compound numbers correspond to the compound numbers in Table 3. […] ;

[7] = system: HCV RNA replicon in cell line ET (luc-ubi-neo/ET), human Huh7 hepatoma; test: Luciferase Assay (Example 35), replicon-derived luciferase activity; type: cell-based; conditions: Hepatitis C virus, Huh-7, assay described in Example 35
Protocol: The compounds were assayed to evaluate the antiviral activity and cytotoxicity of compounds using replicon-derived luciferase activity. This assay used the cell line ET (luc-ubi-neo/ET), which is a human Huh7 hepatoma cell line that contains an HCV RNA replicon with a stable luciferase (Luc) reporter and cell culture-adaptive mutations. The ET cell line was grown in a 5% CO2 incubator at 37° C. in Dulbecco's modified essential media (DMEM) supplemented with 2 mM L-glutamine, nonessential amino acids, 100 U of penicillin/ml, 100 μg of streptomycin/mL, and 10% fetal bovine serum. G418 (Geneticin; Invitrogen) was added at a final concentration of 400 ug//mL.
All cell culture reagents were obtained from Invitrogen (Carlsbad). Cells were trypsinized (1% trypsin:EDTA) and plated out at 5×10^3 cells/well in white 96-well assay plates (Costar) dedicated to cell number (cytotoxicity) or antiviral activity assessments. Test compounds were added at six 3-fold concentrations each and the assay was run in DMEM, 5% FBS, 1% pen-strep, 1% glutamine, 1% non essential amino acid. Human interferon alpha-2b (PBL Biolabs, New Brunswick, N.J.) was included in each run as a positive control compound. Cells were processed 72 hr post test compound addition when the cells were still subconfluent. Antiviral activity was measured by analyzing replicon-derived luciferase activity using the Steady-Glo Luciferase Assay System (Promega, Madison, Wis.) according to manufacturer's instruction. The number of cells in each well was determined by Cell Titer Blue Assay (Promega). Compound profile was derived by calculating applicable EC50 (effective concentration inhibiting virus replication by 50%), EC90 (effective concentration inhibiting virus replication by 90%), IC50 (concentration decreasing cell viability by 50%) and SI50 (selective index: […]) values.

[8] = target: T2, wild type HCV NS3/4A 1b protease enzyme; test: HCV Protease FRET Assay (IC50_APP), wild type; type: biochemical
[9] = read-out: IC50_APP, WT, apparent IC50, wild type NS3/4A 1b

Row | Compound | IC50 [1] [nM] | IC50 [2] [nM] | Inhibition, Cytotoxicity [3] | IC50 [4] [nM] | IC50 [5] [nM] | IC50 [6] [nM] | EC50 [7] [nM] | IC50 [8, 9] [nM] | EC90 [7] [nM] | IC50 [8] [nM]
1 | C=C[C@@H]1C[C@]1(NC(=O)[C@@H]1C[C@@H](Oc2cc(-c3ccccc3)nc3cc(OC)ccc23)CN1C(=O)CNC(=O)/C=C/C)C(=O)NS(=O)(=O)c1ccccc1 [Compound I-47, (2S,4R)-1-(2-(E)-but-2-enamidoacetyl)-4-(7-methoxy-2-phenylquinolin-4-yloxy)-N-((1R,2S)-1-(phenylsulfonylcarbamoyl)-2-vinylcyclopropyl)pyrrolidine-2-carboxamide] | 1000 to 10000 | 1000 to 10000 | E (IC50≧10,000 nM) | 10 to 100 |  |  |  |  |  | 
2 | C=C[C@@H]1C[C@]1(NC(=O)[C@@H]1C[C@@H](Oc2cc(-c3ccccc3)nc3cc(OC)ccc23)CN1C(=O)C1(NC(=O)OC(C)(C)C)CCN(C(=O)CCl)CC1)C(=O)NS(=O)(=O)c1ccccc1 [Compound I-25, tert-butyl-1-(2-chloroacetyl)-4-((2S,4R)-4-(7-methoxy-2-phenylquinolin-4-yloxy)-2-((1R,2S)-1-(phenylsulfonylcarbamoyl)-2-vinylcyclopropylcarbamoyl)pyrrolidine-1-carbonyl)piperidin-4-ylcarbamate] | > 10000 | 10 to 100 | C (IC50>100 nM and ≦1000 nM) | < 10 |  |  |  |  |  | 
3 | C=C[C@@H]1C[C@]1(NC(=O)[C@@H]1C[C@@H](Oc2cc(-c3ccccc3)nc3cc(OC)ccc23)CN1C(=O)CNC(=O)C#CC)C(=O)NS(=O)(=O)C1CC1 [Compound I-48, (2S,4R)-1-(2-but-2-ynamidoacetyl)-N-((1R,2S)-1-(cyclopropylsulfonylcarbamoyl)-2-vinylcyclopropyl)-4-(7-methoxy-2-phenylquinolin-4-yloxy)pyrrolidine-2-carboxamide] | 1000 to 10000 | 1000 to 10000 | E (IC50≧10,000 nM) | 10 to 100 |  |  |  |  |  | 
4 | C=CC(=O)NC[C@H](NC(=O)OC(C)(C)C)C(=O)N1C[C@H](Oc2cc(-c3ccccc3)nc3cc(OC)ccc23)C[C@H]1C(=O)N[C@]1(C(=O)O)C[C@H]1C=C [Compound I-41, (1R,2S)-1-((2S,4R)-1-((S)-3-acrylamido-2-(tert-butoxycarbonylamino)propanoyl)-4-(7-methoxy-2-phenylquinolin-4-yloxy)pyrrolidine-2-carboxamido)-2-vinylcyclopropanecarboxylic acid] | > 10000 | 1000 to 10000 | E (IC50≧10,000 nM) | 10 to 100 |  |  |  |  |  | 
5 | C=C[C@@H]1C[C@]1(NC(=O)[C@@H]1C[C@@H](Oc2nccc3cc(OC)ccc23)CN1C(=O)[C@H](CCC(=O)C#CC(C)(C)C)NC(=O)OC(C)(C)C)C(=O)NS(=O)(=O)C1CC1 [Compound I-135] |  |  |  |  | < 10 | < 10 | 10 to 100 | < 10 |  | 
6 | C=CC(=O)N[C@H](C(=O)N1C[C@H](Oc2nccc3cc(OC)ccc23)C[C@H]1C(=O)N[C@]1(C(=O)NS(=O)(=O)C2CC2)C[C@H]1C=C)C(C)(C)O [Compound I-131] |  |  |  |  | 10 to 100 | 10 to 100 | 100 to 1000 | < 10 |  | 
7 | C=CC(=O)N(C)C[C@H](NC(=O)OC(C)(C)C)C(=O)N1C[C@H](Oc2nccc3ccccc23)C[C@H]1C(=O)N[C@]1(C(=O)NS(=O)(=O)C2CC2)C[C@H]1C=C [Compound I-98, {1-[(Acryloyl-methyl-amino)-methyl]-2-[2-(1-cyclopropanesulfonylaminocarbonyl-2-vinyl-cyclopropylcarbamoyl)-4-(isoquinolin-1-yloxy)-pyrrolidin-1-yl]-2-oxo-ethyl}-carbamic acid tert-butyl ester] |  |  |  |  | 100 to 1000 | 100 to 1000 | 10 to 100 | 10 to 100 | 100 to 1000 | 
8 | C=C[C@@H]1C[C@]1(NC(=O)[C@@H]1C[C@@H](Oc2nccc3cc(OC)ccc23)CN1C(=O)[C@H](CCC(=O)/C=C/C)NC(=O)OC(C)(C)C)C(=O)NS(=O)(=O)C1CC1 [Compound I-139] |  |  |  |  | < 10 | < 10 | 10 to 100 | < 10 |  | 
9 | C=C[C@@H]1C[C@]1(NC(=O)[C@@H]1C[C@@H](Oc2nccc3cc(OC)ccc23)CN1C(=O)[C@H](CCC(=O)/C(C)=C/C)NC(=O)OC(C)(C)C)C(=O)NS(=O)(=O)C1CC1 [Compound I-95, {1-[2-(1-Cyclopropanesulfonylaminocarbonyl-2-vinyl-cyclopropylcarbamoyl)-4-(6-methoxy-isoquinolin-1-yloxy)-pyrrolidine-1-carbonyl]-5-methyl-4-oxo-hept-5-enyl}-carbamic acid tert-butyl ester] |  |  |  |  | 100 to 1000 | 10 to 100 | 10 to 100 | < 10 | 100 to 1000 | 
10 | C=C[C@@H]1C[C@]1(NC(=O)[C@@H]1C[C@@H]2CN1C(=O)[C@H](CCC(=O)C=C(C)C)NC(=O)OCCC/C=C/c1ccc3ccnc(c3c1)O2)C(=O)NS(=O)(=O)C1CC1 [Compound I-102] |  |  |  |  | 1000 to 10000 | 10 to 100 | < 10 |  | 10 to 100 | < 10
11 | C=CC(=O)NC[C@H](NC(=O)OC(C)(C)C)C(=O)N1C[C@H](Oc2nccc3cc(OC)ccc23)C[C@H]1C(=O)N[C@]1(C(=O)NS(=O)(=O)C2CC2)C[C@H]1C=C [Compound I-92, {1-(Acryloylamino-methyl)-2-[2-(1-cyclopropanesulfonylaminocarbonyl-2-vinyl-cyclopropylcarbamoyl)-4-(6-methoxy-isoquinolin-1-yloxy)-pyrrolidin-1-yl]-2-oxo-ethyl}-carbamic acid tert-butyl ester] |  |  |  |  | 100 to 1000 | 10 to 100 | 10 to 100 | < 10 | 100 to 1000 | 

— US8309685B2 (Celgene Avilomics Research, Inc., priority 2007, dated 2012)
